Laboratory results taken from paper PMC9317966, “Structure-function analysis of the AMPK activator SC4 and identification of a potent pan AMPK activator” (Biochemical Journal, 2022).

Key:
γ1AMPK complexes = assay: Radiolabel kinase assay, immobilised GST-tagged γ1AMPK (stated across γ1 complexes); assay type: biochemical, human
Source text: We directly compared in vitro potencies of pan activators by performing radiolabel kinase assays with γ1AMPK complexes. Initially, we used GST-tagged γ1AMPK expressed in HEK293T/17 cells and immobilised on glutathione-Sepharose (Figure 2 and Table 2). […] These assays used AMPK purified from Sf9 insect cells or E. coli that was pre-treated with CaMKK2. […] However, relative to immobilised GST-α2β1γ1 from HEK293T/17 cells, His-tagged and myristoylated α2β1γ1 AMPK (expressed in E. coli, CaMKK2-treated and assayed in solution) was at least 10-fold more sensitive to activation by both MK-8722 and MSG011 (Supplementary Figure S3B), indicating the GST-affinity tag or CaMKK2 treatment may exert some influence on sensitivity to these activators.
Adherent HEK293T/17 cells at ∼50% confluency were triply transfected with full-length AMPK α1 or α2 (NH2-terminal GST fusion, pDEST27 vector), β1 or β2 (COOH-terminal FLAG fusion, pcDNA3.1 vector), and γ1, γ2 or γ3 (NH2-terminal HA fusion, pMT2 vector) in the presence of FuGENE HD transfection reagent (Promega) as per the manufacturers protocol. Cells were harvested 48 hours post-transfection by first gently washing in ice cold phosphate buffered saline (PBS; Sigma–Aldrich), then scraping in ice cold lysis buffer (50 mM TRIS pH 7.5, 150 mM NaCl, 10% (v/v) glycerol, 50 mM NaF, 5 mM sodium pyrophosphate, 1% (v/v) Triton X-100, cOmplete protease inhibitor cocktail). Lysates were clarified by centrifugation (16 000g, 3 min, 4°C), flash frozen in liquid N2 and stored at −80°C until analysis. For radioactive kinase assays, AMPK was immobilised on glutathione Sepharose 4B resin (GE Healthcare) by incubation with lysates for 1.5 h at 4°C. Following centrifugation (1000g, 3 min, 4°C), the resin was washed twice in purification buffer (50 mM HEPES pH 7.4, 150 mM NaCl, 10% (v/v) glycerol, 0.02% (v/v) Tween-20), once in 50 mM HEPES pH 7.4 with 0.02% (v/v) Tween-20, then resuspended to a 50% slurry with 50 mM HEPES pH 7.4 and 10 µl added to the activity assays. For in solution kinase assays, α1β1γ1 AMPK was eluted from glutathione-Sepharose by incubating with purification buffer supplemented with 40 mM reduced glutathione (Sigma–Aldrich).
AMPK activity was determined by phosphorylation of the SAMS peptide (Purar Chemicals, sequence: NH2-HMRSAMSGLHLVKRR-COOH) in a 25 µl reaction volume containing 100 µM SAMS peptide, 5 mM MgCl2, 200 µM ATP, [γ-^32P]-ATP (PerkinElmer) and assay buffer (50 mM HEPES pH 7.4, 1 mM DTT and 0.02% (v/v) Tween-20) and purified AMPK. […] Ultima Gold liquid scintillation fluid (5 ml; PerkinElmer) was added to vials containing dried phosphocellulose papers, and the level of ^32P-transfer to the SAMS peptide was determined using a Tri-Carb 2900TR liquid scintillation counter (PerkinElmer).

HeLa cells = assay: Immunoblot of AMPK signalling in HeLa cells; assay type: cell-based; details: 2.5 µM, 1 h
Method: To evaluate the efficacy of MSG011 in cellulo, we incubated mouse primary hepatocytes with 2.5 µM MSG011 for 60 min and tracked changes in phosphorylation of AMPK α-Thr172 (marker of activation) and the AMPK substrate acetyl-CoA carboxylase (ACC) Ser79 (AMPK signalling marker).
HEK293T/17, HEK293T, COS7, HeLa and PC3 cells (ATCC) were maintained in Dulbecco's Modified Eagle's medium (DMEM; Sigma–Aldrich) supplemented with 10% fetal bovine serum (FBS; Assay Matrix) at 37°C and 5% CO2. Primary hepatocytes from wild type mice were prepared using the collagenase perfusion method and cultured as described previously. Cultures were incubated with fresh DMEM (no FBS) for 2 h prior to 1 h treatment with MSG011 (dissolved in DMSO) or phenformin (dissolved in H2O). Adherent HEK293T/17 cells at ∼50% confluency were triply transfected with AMPK α1 (pcDNA3.1 vector), β1 (COOH-terminal MYC fusion, pcDNA3.1 vector) and WT γ1 or γ1-R299G mutant (NH2-terminal HA fusion, pMT2 vector) in the presence of FuGENE HD transfection reagent (Promega) as per the manufacturers protocol. […]
All samples were separated on 12% SDS–PAGE gels and transferred to an Immobilon-FL PVDF membrane (Merck Millipore). […] Immunoblots were visualised on the Odyssey Infrared Imaging System (LI-COR Biosciences) and immunoreactive bands analysed and quantified using Image Studio Software (LI-COR Biosciences).

SMILES | EC50 fold higher than previously determined by high-throughput fluorescence-based assays in solution (γ1AMPK complexes; compared with refs 17, 18) | EC50 (γ1AMPK complexes; immobilised GST-γ1AMPK, read-out: EC50 values for γ1AMPK activation) [µM] | AMPK signalling (phosphorylation of ACC-Ser79 and raptor-Ser792) (HeLa cells)
O[C@@H]1CO[C@H]2[C@@H]1OC[C@H]2Oc1nc2nc(-c3ccc(-c4ccccc4)cc3)c(Cl)cc2[nH]1 [MK-8722, reference compound] | 100–1000 fold | 1.2 to 5.6 | 
CC(=O)NC1CC=C(c2ccc(-c3nc4nc(Oc5ccc(C)c(C(=O)O)c5)[nH]c4cc3Cl)cc2)CC1 (stereo not drawn) [MSG011, 5-((5-(4′-Acetamido-2′,3′,4′,5′-tetrahydro-[1,1′-biphenyl]-4-yl)-6-chloro-1H-imidazo[4,5-b]pyridin-2-yl)oxy)-2-methylbenzoic acid] |  |  | significantly activated AMPK
